# Results as given in article PMC5430599, “Antiplasmodial dihetarylthioethers target the coenzyme A synthesis pathway in Plasmodium falciparum erythrocytic stages” (Malaria Journal, 2017).
# Test system: asexual erythrocytic stages of transgenic NF54-luc P. falciparum
# Assay: Luciferase-based viability screening for anti-malarial activity
# Type: cell-based, Plasmodium falciparum
# Conditions: 2 µg/mL
# Method: Asexual erythrocytic stages of transgenic NF54-luc P. falciparum were used for the luciferase-based viability assay. These parasites constitutively express high levels of luciferase. The parasites were cultured as described previously. Parasite culture with parasitaemia of 0.5–1% was dispensed in triplicate into white 96-well flat-bottom plates (each well contains 250 µL) (NUNC, Roskilde, […], 90% N2, 5% CO2, and 5% O2). 0.01% DMSO was included in the untreated infected RBC cultures as negative control, since the compounds stock initially was diluted in DMSO and each treatment well also contained 0.01% DMSO. Subsequently, 100 µL RPMI1640 media was removed from each well and a 100 µL volume of the Bright-Glo® substrate solution added to each well. The resultant cleavage product of the reaction, light, was measured using a FLUOROSKAN FL luminometer (Thermo), to ascertain viable parasites. Untreated cultures were used as negative controls and to calculate the inhibition rate (0% inhibition of parasite growth). Blasticidin (Sigma-Aldrich, St. Louis, MO, USA), used for selection of transfected parasites, was included as a positive control on each plate and gave >90% inhibition of parasite growth at concentration 2 µg/mL. Compounds with >50% inhibition of viability were rated as actives. Experiments were performed in triplicate and were repeated at least twice.
row,Compound,inhibition of parasite growth (positive control) [%]
1,"CN(CC[C@H](N)CC(=O)N[C@H]1C=C[C@H](n2ccc(N)nc2=O)O[C@@H]1C(=O)O)C(=N)N [BS, Blasticidin, reference compound]",> 90

# Same assay, conditions: 3 µM, 48 h; >50% inhibition of viability rated active
row,Compound,"% inhibition, PfNF54-Luc at 3 µM"
1,Clc1ccc2[nH]c(Sc3ncnc4sccc34)nc2c1 [Compound 8i],inactive
2,c1coc(-c2nc(Sc3ncnc4sccc34)n[nH]2)c1 [Compound 8a],33.2 ± 6.8%
3,Cn1cnnc1Sc1ncnc2sccc12 [Compound 8b],inactive
4,Cc1ccc2nc(Sc3ncnc4sccc34)[nH]c2c1 [Compound 8h],inactive
5,"CN(CC[C@H](N)CC(=O)N[C@H]1C=C[C@H](n2ccc(N)nc2=O)O[C@@H]1C(=O)O)C(=N)N [BS, Blasticidin, reference compound]",99.3 ± 0.7%
6,COc1ccc2[nH]c(Sc3ncnc4sccc34)nc2c1 [Compound 8j],inactive

# Same assay, conditions: Plasmodium falciparum, NF54, 48 h, read-out: % inhibition, PfNF54-Luc at 3 µM, 3 µM, 48 h; >50% inhibition of viability rated active
row,Compound,inhibition at 3 µM [%]
1,c1coc(-c2nnc(Sc3ncnc4[nH]ccc34)o2)c1 [Compound 6a],-24.8 ± 13.6
2,Clc1ccc2[nH]c(Sc3ncnc4sccc34)nc2c1 [Compound 8i],-18.4 ± 10.6
3,OCc1nnc(Sc2ncnc3sccc23)o1 [Compound 3q],-12.3 ± 2.2
4,O=S(=O)(c1ccc(-c2nnc(Sc3ncnc4sccc34)o2)cc1)N1CCOCC1 [Compound 3l],24.3 ± 3.2
5,c1coc(-c2nc(Sc3ncnc4sccc34)n[nH]2)c1 [Compound 8a],33
6,c1nc(Sc2nnc(C3CCNCC3)o2)c2ccsc2n1 [Compound 3r],7.7 ± 1.8
7,NCc1nnc(Sc2ncnc3sccc23)o1 [Compound 3s],-2.8 ± 16.6
8,Cn1cnnc1Sc1ncnc2sccc12 [Compound 8b],4.7 ± 2.6
9,Clc1ccccc1-c1nnc(Sc2ncnc3sccc23)o1 [Compound 3f],1.5 ± 4.3
10,Cc1ccc2nc(Sc3ncnc4sccc34)[nH]c2c1 [Compound 8h],-1.9 ± 5.3
11,Cc1ccc(-c2nnc(Sc3ncnc4sccc34)o2)cc1 [Compound 3j],-11 ± 6.7
12,N#Cc1nccnc1Sc1nnc(-c2ccco2)o1 [Compound 6c],0.98 ± 1.52
13,c1cncc(-c2nnc(Sc3ncnc4sccc34)o2)c1 [Compound 3i],-5.5 ± 3.8
14,CCN(CC)S(=O)(=O)c1ccc(-c2nnc(Sc3ncnc4sccc34)o2)cc1 [Compound 3d],-0.6 ± 5.4
15,COc1ccc2[nH]c(Sc3ncnc4sccc34)nc2c1 [Compound 8j],-36.3 ± 10.6
16,Fc1ccc(-c2nnc(Sc3ncnc4sccc34)o2)cc1 [Compound 3m],-8.3 ± 4.1
17,c1coc(-c2nnc(Sc3ncnc4[nH]cnc34)o2)c1 [Compound 6b],1.79 ± 2.53
18,CC(C)(C)OC(=O)NCc1nnc(Sc2ncnc3sccc23)o1 [Compound 3o],2.28 ± 3.31
19,Brc1ccccc1-c1nnc(Sc2ncnc3sccc23)o1 [Compound 3g],-13.1 ± 9.1
20,O=S(=O)(c1ccc(-c2nnc(Sc3ncnc4sccc34)o2)cc1)N1CCCCC1 [Compound 3e],-7.3 ± 6.9
21,CCc1ccc(-c2nnc(Sc3ncnc4sccc34)o2)cc1 [Compound 3k],-7 ± 1.8
22,CC(C)(C)c1nnc(Sc2ncnc3sccc23)o1 [Compound 3p],-14.6 ± 12.9
23,CC1CCc2sc(-c3nnc(Sc4ncnc5sccc45)o3)cc2C1 (stereo not shown) [Compound 3h],-103 ± 4.4
24,CC(C)(C)OC(=O)N1CCC(c2nnc(Sc3ncnc4sccc34)o2)CC1 [Compound 3n],-0.82 ± 3.11

# Same assay, conditions: Plasmodium falciparum, NF54, 48 h, read-out: % inhibition, PfNF54-Luc at 30 µM, 30 µM, 48 h
row,Compound,inhibition at 30 µM [%]
1,COc1ccc(-c2nnc(Sc3ncnc4sccc34)o2)cc1 [Compound 3c],< 50

# Test system: Plasmodium falciparum parasites (3D7 strain)
# Assay: Coenzyme A rescue assay (imaging-based growth inhibition, with or without 0.8 mM CoA)
# Type: cell-based
# Conditions: 0.8 mM CoA
# Method: Plasmodium falciparum parasites (3D7 strain) were grown in RPMI 1640 supplemented with 25 mM HEPES, 5 mg/mL Albumax II, and 0.37 mM hypoxanthine. Parasites were subjected to two rounds of sorbitol synchronization before undergoing compound treatment. Ring stage parasites were exposed to the experimental compounds alone, or in combination with 0.8 mM coenzyme A (CoA) in 384-wells imaging microplates (CellCarrier, PerkinElmer), as previously described. […] Puromycin 5 µM and untreated solvent were used as in-plate positive and negative controls, respectively. Samples were dissolved in DMSO to a final assay DMSO concentration of 0.4%. […] All sample and control wells contained the same final amounts of solvents. Plates were incubated for 72 h at 90% N2, 5% CO2, 5% O2, then parasites were stained with 2-(4-amidinophenyl)-1H-indole-6-carboxamidine (DAPI), and imaged using an Opera QEHS micro-plate confocal imaging system (PerkinElmer) with 405 nm excitation and 450/50 emission filter, using a 20× water immersion objective. Images were analysed as previously described, to obtain normalized % inhibition data, which were then used to calculate IC50 values, through a four parameter logistic curve fitting in GraphPad Prism v.6. The experiment was carried out in two independent biological replicates, each consisting of two technical replicates. Dose–response curves are illustrated in the Additional file 4.
row,Compound,rescue by coenzyme A supplementation (in words)
1,"C[C@@H]1CC[C@H]2[C@@H](C)C(=O)O[C@@H]3O[C@@]4(C)CC[C@@H]1[C@]32OO4 [Artemis, artemisinin, reference compound]",not rescued
2,Cn1cnnc1Sc1ncnc2sccc12 [Compound 8b],significantly rescued
3,"Cc1csc(Sc2ncnc3sccc23)n1 [Amb180780, reference compound]",rescued
4,"CC(C)(CO)C(O)C(=O)NCCCO (stereo not shown) [Pantoth, panthenol, reference compound]",rescued
5,"COc1ccc(C[C@H](N)C(=O)N[C@H]2[C@@H](O)[C@H](n3cnc4c(N(C)C)ncnc43)O[C@@H]2CO)cc1 [Puromyc, puromycin, reference compound]",not rescued
6,"CCN(CC)CCCC(C)Nc1ccnc2cc(Cl)ccc12 (stereo not shown) [Chloroqu, Chloroquine, reference compound]",not rescued

# Same assay, conditions: IC50 CoA / IC50 solvent
row,Compound,IC50 shift with CoA supplementation
1,Cn1cnnc1Sc1ncnc2sccc12 [Compound 8b],sevenfold
2,"Cc1csc(Sc2ncnc3sccc23)n1 [Amb180780, reference compound]",> 13 fold

# Same assay, conditions: IC50 with 0.8 mM CoA / IC50 solvent; threshold 5× significant
row,Compound,IC50-ratio (CoA/solvent)
1,Cn1cnnc1Sc1ncnc2sccc12 [Compound 8b],7.39
2,"Cc1csc(Sc2ncnc3sccc23)n1 [Amb180780, reference compound]",40.8
3,"COc1ccc(C[C@H](N)C(=O)N[C@H]2[C@@H](O)[C@H](n3cnc4c(N(C)C)ncnc43)O[C@@H]2CO)cc1 [Puromyc, puromycin, reference compound]",2.78
4,"CCN(CC)CCCC(C)Nc1ccnc2cc(Cl)ccc12 (stereo not shown) [Chloroqu, Chloroquine, reference compound]",1.39

# Same assay, conditions: Plasmodium falciparum, 3D7, 72 h, 0.8 mM CoA (rescue), 72 h; read-out: IC50 [µM], Pf3D7 + 0.8 mM CoA
row,IC50 [µM],Compound
1,0.0049 ± 0.0011,"C[C@@H]1CC[C@H]2[C@@H](C)C(=O)O[C@@H]3O[C@@]4(C)CC[C@@H]1[C@]32OO4 [Artemis, artemisinin, reference compound]"
2,1.51 ± 0.19,"Cc1csc(Sc2ncnc3sccc23)n1 [Amb180780, reference compound]"
3,0.0939 ± 0.0016,"COc1ccc(C[C@H](N)C(=O)N[C@H]2[C@@H](O)[C@H](n3cnc4c(N(C)C)ncnc43)O[C@@H]2CO)cc1 [Puromyc, puromycin, reference compound]"

row,Compound,IC50 [µM]
1,c1coc(-c2nc(Sc3ncnc4sccc34)n[nH]2)c1 [Compound 8a],16.1 ± 2.2
2,Cn1cnnc1Sc1ncnc2sccc12 [Compound 8b],~40

# Same assay, conditions: Plasmodium falciparum, 3D7, 72 h, no CoA (solvent, non-rescue), 72 h; read-out: IC50 [µM], Pf3D7 + solvent
row,IC50 [µM],Compound
1,0.00337 ± 0.00065,"C[C@@H]1CC[C@H]2[C@@H](C)C(=O)O[C@@H]3O[C@@]4(C)CC[C@@H]1[C@]32OO4 [Artemis, artemisinin, reference compound]"
2,0.037 ± 0.0017,"Cc1csc(Sc2ncnc3sccc23)n1 [Amb180780, reference compound]"
3,752 ± 82,"CC(C)(CO)C(O)C(=O)NCCCO (stereo not shown) [Pantoth, panthenol, reference compound]"

row,Compound,IC50 [µM]
1,c1coc(-c2nc(Sc3ncnc4sccc34)n[nH]2)c1 [Compound 8a],10.5 ± 1.1
2,Cn1cnnc1Sc1ncnc2sccc12 [Compound 8b],6.4 ± 4.3

# Same assay, conditions: Plasmodium falciparum, 3D7, 72 h, read-out: IC50 [µM], Pf3D7 + 0.8 mM CoA
row,Compound,IC50 [µM]
1,"CCN(CC)CCCC(C)Nc1ccnc2cc(Cl)ccc12 (stereo not shown) [Chloroqu, Chloroquine, reference compound]",0.0271 ± 0.0094

# Same assay, conditions: Plasmodium falciparum, 3D7, 72 h, read-out: IC50 [µM], Pf3D7 + solvent
row,Compound,IC50 [µM]
1,"CCN(CC)CCCC(C)Nc1ccnc2cc(Cl)ccc12 (stereo not shown) [Chloroqu, Chloroquine, reference compound]",0.0195 ± 0.0034

# Test system: human embryonic kidney (HEK-293) cells
# Assay: Cytotoxicity assay: human HEK-293 cell line (resazurin)
# Type: cell-based
# Conditions: Homo sapiens, HEK293, 72 h, read-out: IC50 [µM], HEK-293
# Method: Cytotoxicity against human embryonic kidney (HEK-293) cells was assessed as previously described. […] Cells were detached using Accutase treatment, then seeded into black clear-bottom 384-wells fluorescence microplates (Greiner), at a cell density of 44,000 cells/mL in 45 µL/well, using a Benchtop liquid dispenser (Thermo Fisher Multidrop). After seeding, the cells were brought back to the incubator and allowed to settle and reattach overnight. […] Plates were incubated at the standard condition above for 72 h. At the end of the incubation the medium in each well was replaced with 1 mM resazurin, and the plates were read using a multilabel microplate reader (PerkinElmer Envision) at 530 nm excitation and 595 nm emission wavelengths after a further 6 h incubation. Inhibition data was generated using Office Excel 2013 (Microsoft). IC50 values were calculated by fitting a four-parameter nonlinear regression model using Prism v.6.0 (Graphpad Software Inc., La Jolla, CA, USA).
row,Compound,IC50 [µM]
1,"CCN(CC)CCCC(C)Nc1ccnc2cc(Cl)ccc12 (stereo not shown) [Chloroqu, Chloroquine, reference compound]",> 40

# Same assay, conditions: Homo sapiens, HEK293; cytotoxicity, 72 h; read-out: IC50 [µM], HEK-293
row,Compound,IC50 [µM]
1,c1coc(-c2nc(Sc3ncnc4sccc34)n[nH]2)c1 [Compound 8a],> 40
2,Cn1cnnc1Sc1ncnc2sccc12 [Compound 8b],> 40
3,"Cc1csc(Sc2ncnc3sccc23)n1 [Amb180780, reference compound]",> 40
4,"COc1ccc(C[C@H](N)C(=O)N[C@H]2[C@@H](O)[C@H](n3cnc4c(N(C)C)ncnc43)O[C@@H]2CO)cc1 [Puromyc, puromycin, reference compound]",0.36

# Test system: Plasmodium berghei
# Assay: not given
# Set-up: method as in PMID 24900512
# Conditions: 50 mg/kg subcutaneously over 4 days; cited from earlier work
Compound,drop in parasitaemia [%],life-span of infected animals
c1ccn2c(Sc3ncnc4sccc34)nnc2c1 [compound 33],34,failed to prolong the life-span

# Test system: Plasmodium falciparum
# Assay: not given
# Set-up: method as in PMID 27855724
# Conditions: addition of pantethine; cited from earlier work
row,Compound,"rescue of activity by pantethine, dephospho CoA and CoA"
1,"Cc1csc(Sc2ncnc3sccc23)n1 [Amb180780, reference compound]",more than 75%
